Results from patent US3943137A, “Acronycine derivatives” (University of Kansas Endowment Association, priority 1973, dated 1976).
Several values for one entry are separate records, joined by “and”; a condition that tells them apart may be missing. Equal entries are not always repeated. Structures can show the parent of a compound that is named as a salt. Where two headings read alike, the source gives them in different places. Values belong to the molecule of their own block, whether it stands above or below them.

What was measured:
Format in all cases: physicochemical
[1] = Hydrolysis of acylacronycinium salts in aqueous solution (no complexing agent); details: for half-life: read-out: t1/2 (hydrolysis)
Solubility = details: water; for solubility (qualitative): acetone, benzene
[2] = Hydrolysis of acylacronycinium salts in presence of complexing agents; details: for half-life at 100 µM: 10^-4 M drug, 25° C., pH 6.0, read-out: Apparent half-life, t1/2; for k (hydrolysis): gentisic acid (0.05 M)
Protocol: In studying the kinetics of hydrolysis of the aforesaid quaternary acyl acronycinium salts to yield acronycine, it was determined that the increased solubility and the rapid rate of hydrolysis were such that said quaternary derivatives were eminently well suited for use as pro-drugs. Nevertheless, the facility with which hydrolysis occurred in water presented one problem of too rapid precipitation from solution as a consequence of the formation of the slightly soluble acronycine free base. In order to prevent any objectionable hydrolysis of the pro-drug in aqueous solution prior to administration, it was discovered that the hydrolytic rate thereof could be retarded by the formation of intermolecular complexes therewith. […] Moreover, since complexation is an equilibrium phenomenon, extensive complexation occurs in the relatively concentrated drug solution. However, upon dilution with aqueous media such as body fluids, the complex species dissociates, and the pro-drug is then rapidly hydrolyzed to the desired drug species, namely, the acronycine free base. Exemplary of the complexing agents which can be used in aqueous solutions of the acylacronycinium salts to retard the hydrolysis thereof are a wide variety of the organic acids and alkali metal salts thereof, preferably the cyclic and aromatic organic acids, and most preferably the hydroxy aromatic acids. Representative of same are gentisic acid, gamma-resorcylic acid, p-hydroxycinnamic acid, 2-furoic acid, m-hydroxycinnamic acid, 3,4-dimethylcinnamic acid and 3-methylgentisic acid, and the sodium and other salts thereof. A suitably stable and useful formulation of an acylacronycinium salt for use in the preparation of pharmaceutical solutions can be simply made by preparing a powder mixture of the desired acylacronycinium salt and a suitable complexing agent in such proportions and amounts that upon addition of an aqueous solvent, the resulting solution would be of a composition such that the hydrolysis of the acylacronycinium salt would be greatly retarded.
Among the number of the hydroxy aromatic acids, particularly the hydroxy benzoic acids that have been utilized according to the invention, excellent results have been attained with the preferred 2,5-dihydroxy-benzoic acid (gentisic acid). […] Mathematical analysis of the results dictates describing this system by two equilibria; one to one complex and one to two complex formation (one drug and two ligand), with the 1:1 complex and the free drug hydrolyzing with half-lives of 120 and 23 minutes, respectively. The solid curve of the FIGURE of drawing illustrates the result of such model. Constants required for the t1/2 calculations were as follows:
and the experimental conditions were:
Use of suitable complexing agents in aqueous solutions of the acylacronycinium salts retarded the hydrolysis of such compounds. Some of the complexing agents used were the following: sodium gentisate, sodium gamma-resorcylate and sodium cinnamate. Table I reflects the effects of sodium gentisate concentration on the apparent rate of hydrolysis of acetylacronycinium perchlorate.
Apparent half-line of acetylacronycinium perchlorate
(10^-^4 M) as a function of sodium gentisate concentration
in water at 25° C. pH = 6.0.
Experimental: Twenty-five mg of acetylacronycinium perchlorate and 4.6 g of sodium gentisate were powdered, mixed and placed in a suitable vial and sealed. Just prior to use, 100 ml of water was added to the vial, and the solid material dissolved rapidly, yielding a solution which was about 10^^-3 M with respect to acetylacronycinium perchlorate and about 0.2 Molar with respect to sodium gentisate.

[3] = phosphate buffer, 25° C., pH not given, three runs
[4] = acetate buffer (25° C.), replicate runs
[5] = phosphate buffer (25° C.), replicate runs
[6] = phosphate buffer, pH 7.60, 25°C

SMILES: COc1cc2c(c3c1c(OC(=O)C(C)C)c1ccccc1[n+]3C)C=CC(C)(C)O2 [Isobutyrylacronycinium Perchlorate]
k (hydrolysis) ([1]; phosphate buffer, pH 6.33, 24° C.): 0.02057 min⁻¹
half-life ([1]; phosphate buffer, pH 6.33, phosphate buffer, pH 6.33, 24° C.): 0.562 h

hydrolysis on storage ([1]; overnight in desiccator while still moist): Some hydrolysis occurred overnight
SMILES: COc1cc2c(c3c1c(OC(=O)C(F)(F)F)c1ccccc1[n+]3C)C=CC(C)(C)O2 [Trifluoroacetylacronycinium Perchlorate]
reactivity with chloroform ([1]; chloroform): little reaction with chloroform (until water was added)
reactivity with water and methanol ([1]; water and methanol): reacted very quickly with water and methanol

SMILES: COc1cc2c(c3c1c(OC(C)=O)c1ccccc1[n+]3C)C=CC(C)(C)O2 [acetylacronycinium perchlorate, Acetylacronycinium Perchlorate]
solubility (qualitative) (Solubility): insoluble in benzene, but soluble in water and acetone
increase in solubility over the free base (Solubility): hundredfold increase in solubility
solubility (Solubility; read-out: Solubility): ~250 µg/mL
solubility (Solubility; read-out: solubility in water): 250 µg/mL
enthalpy of activation of hydrolysis [1]: about 20 kcal/mole
effect of dielectric constant on hydrolysis rate ([1]; increasing dielectric constant): greatly increased
effect of ionic strength, pH, anion, ester group size on hydrolysis rate ([1]; ionic strength, pH (below 8-9), anion, ester group size): remarkably insensitive
t1/2 and k of hydrolysis, 3,4-dihydroxycinnamic acid complex ([2]; 3,4-dihydroxycinnamic acid, pH 6.5, 25° C., 0.05 M phosphate buffer): roughly comparable to those generated with the sodium gentisate complex
t1/2 and k of hydrolysis, cinnamic acid complex ([2]; cinnamic acid, pH 6.5, 25° C., 0.05 M phosphate buffer): roughly comparable to those generated with the sodium gentisate complex
t1/2 and k of hydrolysis, gamma-resorcylic acid complex ([2]; gamma-resorcylic acid, pH 6.5, 25° C., 0.05 M phosphate buffer): roughly comparable to those generated with the sodium gentisate complex
t1/2 1:2 Complex ([2]; model constant, sodium gentisate, μ = 1.0 M, 25.0°C, pH 6.5, 520 nm): .infin.
t1/2 and k of hydrolysis, p-hydroxycinnamic acid complex ([2]; p-hydroxycinnamic acid, pH 6.5, 25° C., 0.05 M phosphate buffer): roughly comparable to those generated with the sodium gentisate complex
rate of hydrolysis with sodium gentisate ([2]; sodium gentisate, FIGURE): greatly reduced
K1:1 (complexation constant) ([2]; sodium gentisate, one drug, one ligand, μ = 1.0 M, 25.0°C, pH 6.5, 520 nm, in M^-1 (unit assumed)): 4,081
k1:2 (complexation constant) ([2]; sodium gentisate, one drug, two ligand, μ = 1.0 M, 25.0°C, pH 6.5, 520 nm): 80,000
half-life at 1000 µM ([2]; water, about 10^-3 M drug, about 0.2 Molar sodium gentisate, water, reconstituted powder mixture, read-out: apparent hydrolytic half-life (converted)): ~9.5 h
half-life at 100 µM ([2]; water, pH 6, sodium gentisate 0 M/l, water): 0.383 h
half-life at 100 µM ([2]; water, pH 6, sodium gentisate 0.1 M/l, water): 5.83 h
half-life at 100 µM ([2]; water, pH 6, sodium gentisate 0.2 M/l, water): 9.63 h
half-life at 100 µM ([2]; water, pH 6, sodium gentisate 1 × 10^-2 M/l, water): 2.08 h
half-life at 100 µM ([2]; water, pH 6, sodium gentisate 2 × 10^-2 M/l, water): 2.6 h
half-life at 100 µM ([2]; water, pH 6, sodium gentisate 2.5 × 10^-3 M/l, water): 1.55 h
half-life at 100 µM ([2]; water, pH 6, sodium gentisate 4 × 10^-2 M/l, water): 3.45 h
half-life at 100 µM ([2]; water, pH 6, sodium gentisate 5 × 10^-3 M/l, water): 1.8 h
half-life at 100 µM ([2]; water, pH 6, sodium gentisate 6 × 10^-2 M/l, water): 4.33 h
half-life at 100 µM ([2]; water, pH 6, sodium gentisate 8 × 10^-2 M/l, water): 4.92 h
half-life ([2]; water, pH 6.5, 1:1 complex with sodium gentisate, two-equilibria model, μ = 1.0 M, 25.0°C, pH 6.5, 520 nm, read-out: half-life of hydrolysis, 1:1 complex): 2 h
half-life ([2]; water, pH 6.5, model constant, sodium gentisate, μ = 1.0 M, 25.0°C, pH 6.5, 520 nm, read-out: t1/2 1:1 Complex): 1.98 h

t1/2 (hydrolysis) [1, 3]: 0.2985 h and 0.3997 h
half-life [1, 3]: 0.268 h
SMILES: COc1cc2c(c3c1c(OC(=O)C(C)(C)C)c1ccccc1[n+]3C)C=CC(C)(C)O2 [pivalylacronycinium perchlorate, Pivalylacronycinium Perchlorate]
k (hydrolysis) [1, 3]: 0.043 min⁻¹ and 0.0387 min⁻¹ and 0.0289 min⁻¹

SMILES: COc1cc2c(c3c1c(=O)c1ccccc1n3C)C=CC(C)(C)O2 [perchlorate salt, acronycinium perchlorate]
solubility (qualitative) (Solubility): soluble in water and insoluble in acetone and benzene

SMILES: COc1cc2c(c3c1c(OC(C)=O)c1ccccc1[n+]3C)C=CC(C)(C)O2 [Acetylacronycinium Chloride]
k (hydrolysis) ([1]; methanol/water (90/10), pH 0.28): 0.0248 min⁻¹
half-life ([1]; methanol/water (90/10), pH 0.28, methanol/water (90/10), pH 0.28): 0.467 h
k (hydrolysis) ([1]; methanol/water (90/10), pH 1.28): 0.025 min⁻¹
half-life ([1]; methanol/water (90/10), pH 1.28, methanol/water (90/10), pH 1.28): 0.462 h

SMILES: COc1cc2c(c3c1c(OC(C)=O)c1ccccc1[n+]3C)C=CC(C)(C)O2 [Acetylacronycinium Sulfate]
k (hydrolysis) [1, 4]: 0.0262 min⁻¹ and 0.0254 min⁻¹
t1/2 (hydrolysis) [1, 4]: 0.455 h
half-life ([1]; acetate buffer, acetate buffer (25° C.), replicate runs): 0.442 h
k (hydrolysis) [1, 5]: 0.036 min⁻¹ and 0.0352 min⁻¹ and 0.0323 min⁻¹
t1/2 (hydrolysis) [1, 5]: 0.328 h and 0.358 h
half-life ([1]; phosphate buffer, phosphate buffer (25° C.), replicate runs): 0.322 h

SMILES: CCC(=O)Oc1c2ccccc2[n+](C)c2c3c(cc(OC)c12)OC(C)(C)C=C3 [propionylacronycinium perchlorate, Propionylacronycinium Perchlorate]
k (hydrolysis) ([1]; phosphate buffer, pH 7.50, 25°C): 0.028 min⁻¹
half-life ([1]; phosphate buffer, pH 7.5, phosphate buffer, pH 7.50, 25°C): 0.407 h
k (hydrolysis) [1, 6]: 0.046 min⁻¹ and 0.047 min⁻¹
t1/2 (hydrolysis) [1, 6]: 0.243 h
half-life ([1]; phosphate buffer, pH 7.6, phosphate buffer, pH 7.60, 25°C): 0.248 h
half-life ([2]; 0.05 m gentisic acid, pH 2.7, gentisic acid (0.05 M), pH 2.70, 25°C, read-out: t1/2 (hydrolysis)): 1.71 h
half-life ([2]; 0.05 m gentisic acid, pH 2.78, gentisic acid (0.05 M), pH 2.78, 25°C, read-out: t1/2 (hydrolysis)): 1.44 h
k (hydrolysis) ([2]; pH 2.70, 25°C): 0.0067 min⁻¹
k (hydrolysis) ([2]; pH 2.78, 25°C): 0.008 min⁻¹
